Earlier results as cited in US8617286B2, “Method for increasing crop yield” (priority 2010, dated 2013).

System: nitrification of ammonia nitrogen into nitrate
Settings: general statement, no test described

N#CN=C(N)N [DCD, dicyandiamide]
slowing of nitrification of ammonia nitrogen into nitrate: about 80%
